# Source: US10927350B2, “Methods for generating stem cell-derived beta cells and uses thereof” (President and Fellows of Harvard College, priority 2014, dated 2021)
# Test system: endocrine progenitor cells directed to differentiate into SC-β cells
# Assay: Stimulation index (glucose stimulated insulin secretion) of SC-β cells generated from endocrine progenitor cells in the presence of a JNK inhibitor
# Type: cell-based, human
# Settings: Stimulation index=[insulin@20 mM glucose]/[insulin@2 mM glucose]; Relative Stim Index=Stim Index/Stim Index of Control; versus SC-β cells generated in the absence of the JNK inhibitor; inhibitor added to Step 6 (FIG. 1, FIG. 2C)
# Method: Stimulation index=[insulin@20 mM glucose]/[insulin@2 mM glucose]. Relative Stim Index=Stim Index/Stim Index of Control.
# FIG. 2C is a schematic illustrating an exemplary method for generating SC-β cells by adding a JNK inhibitor to Step 6 of the exemplary protocol shown in FIG. 2B.
# The methods of the present invention contemplate contacting cells (e.g., endocrine progenitor cells or precursors thereof) with effective amounts of one or more agents that decrease the level and/or activity of JNK. An “effective amount” of an agent (or composition containing such agent) refers to the amount sufficient to achieve a desired effect, e.g., when delivered to a cell or subject according to a selected administration form, route, and/or schedule. As will be appreciated by those of ordinary skill in this art, the absolute amount of a particular agent or composition that is effective may vary depending on such factors as the desired biological or pharmacological endpoint, the agent to be delivered, the target tissue, etc. Those of ordinary skill in the art will further understand that an “effective amount” may be contacted with cells or administered in a single dose, or the desired effect may be achieved by use of multiple doses. An effective amount of a composition may be an amount sufficient to reduce the severity of or prevent one or more symptoms or signs of a disorder (e.g., diabetes). […]
smiles,measurement,value
"O=C1c2ccccc2-c2n[nH]c3cccc1c23 [SP600125, Anthra[1,9-cd]pyrazol-6(2H)-on]",Relative stimulation index of generated SC-β cells,greater stimulation index
